In patent publication US20230279016A1, “Tetrahydropyrazolopyrimidines and Related Analogs for Inhibiting YAP/TAZ-TEAD” (THE KATHOLIEKE UNIVERSITEIT LEUVEN, priority 2021, published 2023) one finds EC50 data, which are given here for 22 compounds.

Assay type in all cases: cell-based
Test [1] deals with YAP/TAZ-TEAD transcription. The experiment in a line: Reporter gene assay for measuring the inhibition of YAP/TAZ-TEAD transcription (TEAD-responsive element luciferase reporter in Hek293T cells). The following applies: Hek293T cells transiently transfected with TEAD-responsive element luciferase reporter, 24 hours incubation. The gist of the method: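 Hek293T cells transiently transfected with TEAD-responsive luciferase reporter, exposed to compound for 24 h at 37° C/5% CO2, then read by luminescence. Percent inhibition normalized to vehicle (0%) and positive control inhibitor (100%); EC50 reported as activity ranges.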
On the technique in general: Reporter assays use an easily measured gene product as a stand-in for the process of interest.

The test system of test [2] is NCI-H226 mesothelioma cell line. The experiment in a line: Mesothelioma cell line proliferation assay, NCI-H226. Conditions: NCI-H226, 6 days with compound, cell viability by ATPlite. As to the method: (§1) Mesothelioma cell lines, NCI-H226 and NCI-H2052 (all sourced from the ATCC cell culture collection) are plated in 96-well plates (Corning® 96 Well White Polystyrene Microplate clear flat bottom, white polystyrene (TC-Treated)), at 1500 cells/well in full medium (RPMI 1640 ATCC modification with L-glutamine, HEPES, Phenol Red, Sodium Pyruvate, High glucose, Low sodium bicarbonate and 10% fetal bovine serum). Cells are incubated overnight at 37° C. in an incubator with 5% CO2. Then compounds, dissolved in DMSO, are added in dose-response. Cells are incubated with compound dilutions for another 6 days at 37° C. in an incubator with 5% CO2. Cell viability is quantitated using the ATPlite kit (Perkin-Elmer) and the luminescence is read-out using an Envision instrument (Perkin-Elmer). The amount of relative light units produced using the ATPlite kit is used to calculated percent of inhibition.
(§2) The activities of example compounds tested are depicted in the table below. The activity ranges A, B and C refer to EC50 values in the mesothelioma cell line proliferation assay as described as follows: “A”: EC50 <1 μM; “B” : 1 μM EC50 ≤10 μM and “C” : EC50 >10 μM. NT: not tested.
(Cellular ATP, detected with luciferase, serves as a proxy for viable cell number.)

Test [3] concerns NCI-H2052 mesothelioma cell line. The experiment in a line: Mesothelioma cell line proliferation assay, NCI-H2052. Conditions: NCI-H2052, 6 days with compound, cell viability by ATPlite. The protocol: as §1, §2

The term EC50 denotes the concentration needed to bring the measured effect to its halfway point. As to `C=CC(=O)NCC1Cc2c(cnn2C)N(c2ccc(C(F)(F)F)cc2)C1` (stereo not shown) [Cpd. No. 068, N-((1-methyl-4-(4-(trifluoromethyl)phenyl)-4,5,6,7-tetrahydro-1H-pyrazolo[4,3-b]pyridin-6-yl)methyl)acrylamide], the EC50 in test [1] (Homo sapiens, HEK-293T, 24 h) is less than 1000 nM; in test [2] (Homo sapiens, NCI-H226, 144 h), less than 1000 nM; in test [3] (Homo sapiens, NCI-H2052, 144 h) it was less than 1000 nM.
As for `C=CC(=O)NCC1CN(c2ccc(S(F)(F)(F)(F)F)cc2)c2ccnn2C1` (single isomer, unassigned) [Cpd. No. 023-En2, (R)- or (S)-N-((4-(4-(pentafluoro-l6-sulfaneyl)phenyl)-4,5,6,7-tetrahydropyrazolo[1,5-a]pyrimidin-6-yl)methyl)acrylamide], the half-maximal effective concentration (EC50) in test [1], in test [2] and in test [3] was less than 1000 nM each time.
For the compound `C=CC(=O)NCC1CN(c2ccc(C(F)(F)F)cc2)c2c(Br)cnn2C1` (stereo not shown) [Cpd. No. 058, N-((3-bromo-4-(4-(trifluoromethyl)phenyl)-4,5,6,7-tetrahydropyrazolo[1,5-a]pyrimidin-6-yl)-methyl)acrylamide], the half-maximal effective concentration (EC50) in test [1] (Homo sapiens, HEK-293T, 24 h) was less than 1000 nM; in test [2] (Homo sapiens, NCI-H226, 144 h), less than 1000 nM; in test [3] (Homo sapiens, NCI-H2052, 144 h), 1000 to 10000 nM.
Consider `C=CC(=O)NCC1CN(c2ccc(C(F)(F)F)cc2F)c2ccnn2C1` (single isomer, unassigned) [Cpd. No. 016-En2, (R)- or (S)-N-((4-(2-fluoro-4-(trifluoromethyl)phenyl)-4,5,6,7-tetrahydropyrazolo[1,5-a]pyrimidin-6-yl)methyl)acrylamide], for which the values for the concentration for a half-maximal effect (EC50) in test [1], in test [2] and in test [3] were less than 1000 nM, less than 1000 nM and greater than 10000 nM, respectively.
`C=CC(=O)NCC1CN(c2ccc(OC(F)F)cc2)c2ccnn2C1` (stereo not shown) [Cpd. No. 012, N-((4-(4-(difluoromethoxy)phenyl)-4,5,6,7-tetrahydropyrazolo[1,5-a]pyrimidin-6-yl)methyl)acrylamide]: the concentration giving a half-maximal response (EC50) in test [1] (Homo sapiens, HEK-293T, 24 h) was less than 1000 nM; in test [2] (Homo sapiens, NCI-H226, 144 h) it was less than 1000 nM; in test [3], less than 1000 nM.
Take `C=CC(=O)NCC1CN(c2ccc(C(C)C)cc2)c2ccnn2C1` (single isomer, unassigned) [Cpd. No. 013-En2, (R)- or (S)-N-((4-(4-ispropylphenyl)-4,5,6,7-tetrahydropyrazolo[1,5-a]pyrimidin-6-yl)methyl)acrylamide]: the EC50 is less than 1000 nM in test [1], less than 1000 nM in test [2] and 1000 to 10000 nM in test [3].
As for `C=CC(=O)NC[C@@H]1CN(Cc2ccccc2)c2ccnn2C1` (single isomer, unassigned) [Cpd. No. 049-En1, (R)- or (S)-((4-benzyl-4,5,6,7-tetrahydropyrazolo[1,5-a]pyrimidin-6-yl)methyl)acrylamide], the EC50 in test [1] is greater than 20000 nM; in test [2], 1000 to 10000 nM; in test [3], 1000 to 10000 nM.
Turning to `C=CC(=O)NCC1CN(c2ccc(SC(F)(F)F)cc2)c2ccnn2C1` (single isomer, unassigned) [Cpd. No. 020-En1, (R)- or (S)-N-((4-(4-((trifluoromethyl)thio)phenyl)-4,5,6,7-tetrahydropyrazolo[1,5-a]pyrimidin-6-yl)methyl)acrylamide], the concentration for a half-maximal effect (EC50) was less than 1000 nM in test [1]; less than 1000 nM in test [2]; less than 1000 nM in test [3] (Homo sapiens, NCI-H2052, 144 h).
Regarding `C=CC(=O)NCC1CN(c2ccc(C(F)(F)F)cc2F)c2ccnn2C1` (single isomer, unassigned) [Cpd. No. 016-En1, (R)- or (S)-N-((4-(2-fluoro-4-(trifluoromethyl)phenyl)-4,5,6,7-tetrahydropyrazolo[1,5-a]pyrimidin-6-yl)methyl)acrylamide], the concentration giving a half-maximal response (EC50) in test [1], in test [2] and in test [3] was less than 1000 nM each time.
With `C=CC(=O)NCC1CN(c2ccc(OC(F)(F)F)cc2)c2ccnn2C1` (single isomer, unassigned) [Cpd. No. 011-En2, (R)- or (S)-N-((4-(4-(trifluoromethoxy)phenyl)-4,5,6,7-tetrahydropyrazolo[1,5-a]pyrimidin-6-yl)methyl)acrylamide], the values for the concentration for a half-maximal effect (EC50) in test [1], in test [2] and in test [3] were less than 1000 nM, less than 1000 nM and greater than 10000 nM, respectively.
In the case of `C=CC(=O)NCC1CN(c2ccc(Br)cc2)c2ccnn2C1` (single isomer, unassigned) [Cpd. No. 021-En2, (R)- or (S)-N-((4-(4-bromophenyl)-4,5,6,7-tetrahydropyrazolo[1,5-a]pyrimidin-6-yl)methyl)acrylamide], the concentration for a half-maximal effect (EC50) is less than 1000 nM in test [2] (Homo sapiens, NCI-H226, 144 h) and less than 1000 nM in test [3] (Homo sapiens, NCI-H2052, 144 h).
On to `C=CC(=O)NCC1CN(c2ccc(C(C)C)cc2)c2ccnn2C1` (stereo not shown) [Cpd. No. 013, N-((4-(4-isopropylphenyl)-4,5,6,7-tetrahydropyrazolo[1,5-a]pyrimidin-6-yl)methyl)acrylamide], for which the EC50 was less than 1000 nM in test [1] (Homo sapiens, HEK-293T, 24 h); less than 1000 nM in test [2] (Homo sapiens, NCI-H226, 144 h); less than 1000 nM in test [3] (Homo sapiens, NCI-H2052, 144 h).
As to `C=C(F)C(=O)NCC1CN(c2ccc(C(F)(F)F)cc2)c2ccnn2C1` (stereo not shown) [Cpd. No. 039, 2-fluoro-N-((4-(4-(trifluoromethyl)phenyl)-4,5,6,7-tetrahydropyrazolo[1,5-a]pyrimidin-6-yl)methyl)acrylamide], the 50% effective concentration (EC50) in test [1] (Homo sapiens, HEK-293T, 24 h) was less than 1000 nM; in test [2] (Homo sapiens, NCI-H226, 144 h), less than 1000 nM; in test [3] (Homo sapiens, NCI-H2052, 144 h) it was less than 1000 nM.
On to `C=CC(=O)NCC1CN(c2ccc(OC(F)(F)F)cc2F)c2ccnn2C1` (single isomer, unassigned) [Cpd. No. 019-En2, (R)- or (S)-N-((4-(2-fluoro-4-(trifluoromethoxy)phenyl)-4,5,6,7-tetrahydropyrazolo[1,5-a]pyrimidin-6-yl)methyl)acrylamide], for which the concentration for a half-maximal effect (EC50) in test [1] is less than 1000 nM; in test [2] it was less than 1000 nM; in test [3], greater than 10000 nM.
For `C=CC(=O)NC1CN(c2ccc(C(F)(F)F)c(F)c2)c2ccnn2C1` (single isomer, unassigned) [Cpd. No. 064-En1, (R)- or (S)-N-(4-(3-fluoro-4-(trifluoromethyl)phenyl)-4,5,6,7-tetrahydropyrazolo[1,5-a]pyrimidin-6-yl)acrylamide], the EC50 in test [2] (Homo sapiens, NCI-H226, 144 h) is less than 1000 nM; in test [3] (Homo sapiens, NCI-H2052, 144 h), less than 1000 nM.
With `C=CC(=O)NCC1CN(c2cccc(C(F)(F)F)c2)c2ccnn2C1` (single isomer, unassigned) [Cpd. No. 003-En1, (R)- or (S)-N-((4-(3-(trifluoromethyl)phenyl)-4,5,6,7-tetrahydropyrazolo[1,5-a]pyrimidin-6-yl)methyl)acrylamide], the EC50 in test [2] (Homo sapiens, NCI-H226, 144 h) is 1000 to 10000 nM; in test [3] (Homo sapiens, NCI-H2052, 144 h), greater than 10000 nM.
Consider `C=CC(=O)NCC1CN(CC2CCCCC2)c2ccnn2C1` (single isomer, unassigned) [Cpd. No. 055-En2, (R)- or (S)-N-((4-(cyclohexylmethyl)-4,5,6,7-tetrahydropyrazolo[1,5-a]pyrimidin-6-yl)-methyl)acrylamide], for which the EC50 in test [2] (Homo sapiens, NCI-H226, 144 h) is less than 1000 nM; in test [3] (Homo sapiens, NCI-H2052, 144 h) it was greater than 10000 nM.
For the compound `C=CC(=O)NCC1CN(c2ccc(OC(F)(F)F)cc2)c2cc(C(F)(F)F)nn2C1` (single isomer, unassigned) [Cpd. No. 035-En2, (R)- or (S)-N-((4-(4-(trifluoromethoxy)phenyl)-2-(trifluoromethyl)-4,5,6,7-tetrahydropyrazolo[1,5-a]pyrimidin-6-yl)methyl)acrylamide], the EC50 was less than 1000 nM in test [2] (Homo sapiens, NCI-H226, 144 h) and 1000 to 10000 nM in test [3] (Homo sapiens, NCI-H2052, 144 h).
Consider `C=CC(=O)NCC1CN(c2ccc(OC(F)(F)F)c(F)c2)c2ccnn2C1` (single isomer, unassigned) [Cpd. No. 018-En1, (R)- or (S)-N-((4-(3-fluoro-4-(trifluoromethoxy)phenyl)-4,5,6,7-tetrahydropyrazolo[1,5-a]pyrimidin-6-yl)methyl)acrylamide], for which the concentration giving a half-maximal response (EC50) in test [2] (Homo sapiens, NCI-H226, 144 h) is less than 1000 nM; in test [3] (Homo sapiens, NCI-H2052, 144 h) it was less than 1000 nM.
Turning to `C=CC(=O)NCC1CN(c2ccc(OC(F)(F)F)c(F)c2)c2ccnn2C1` (single isomer, unassigned) [Cpd. No. 018-En2, (R)- or (S)-N-((4-(3-fluoro-4-(trifluoromethoxy)phenyl)-4,5,6,7-tetrahydropyrazolo[1,5-a]pyrimidin-6-yl)methyl)acrylamide], the EC50 in test [2] and in test [3] was less than 1000 nM throughout.
`Cn1cc2c(n1)CC(CNS(C)(=O)=O)CN2c1ccc(OC(F)(F)F)cc1` (stereo not shown) [Cpd. No. 079, N-((2-methyl-4-(4-(trifluoromethoxy)phenyl)-4,5,6,7-tetrahydro-2H-pyrazolo[4,3-b]pyridin-6-yl)methyl)methanesulfonamide]: the EC50 in test [1] (Homo sapiens, HEK-293T, 24 h) fell in the range of 1000 to 20000 nM.
Still for that read-out and setting: in the case of `C=CC(=O)NCC1CN(C2CCCCC2)c2ccnn2C1` (stereo not shown) [Cpd. No. 037, N-((4-cyclohexyl-4,5,6,7-tetrahydropyrazolo[1,5-a]pyrimidin-6-yl)methyl)acrylamide] it was less than 1000 nM.
